Experimental data taken from patent publication US6057325A, “Hexahydro-pyrido(4,3-b)indole derivatives as antipsychotic drugs” (Janssen Pharmaceutia, N.V., priority 1996, dated 2000).

Key:
Type in all cases: in vivo
[1] = test system: dopamine; test: Combined ATN test in rats: apomorphine (APO) challenge, central dopamine antagonism; conditions: Rattus norvegicus, sc, subcutaneous pretreatment, dose protecting 50% of animals, central dopamine antagonistic activity
[2] = test system: serotonin 5HT2 -receptors; test: Combined ATN test in rats: tryptamine (TRY) challenge, central and peripheral serotonin antagonism; conditions: subcutaneous pretreatment, dose protecting 50% of animals; for TRY convulsions ED50: central serotonin antagonistic activity; for TRY hyperaemia ED50: peripheral serotonin antagonistic activity
Description: The central dopamine antagonistic and serotonin antagonistic activity of the subject compounds is evidenced by the experimental data obtained in the combined apomorphine (APO), tryptamine (TRY) and norepinephrine (NOR) test in rats. Said combined apomorphine, tryptamine and norepinephrine test is described in Arch. Int. Pharmacodyn., 227, 238-253 (1977) and provides an empirical evaluation of the relative specificity with which drugs may effect particular neurotransmitter systems centrally (CNS) as well as peripherally. […] Central dopamine antagonism is evaluated by challenging rats, subcutaneously pretreated with different doses of the test compound, with apomorphine which is a dopamine agonist. Next, serotonin antagonism is evaluated by challenging the same rats, subcutaneously pretreated with different doses of the test compound, with tryptamine which is an agonist at serotonin 5HT2 -receptors. Both central and peripheral serotonin antagonism can be assessed in this test. Centrally acting serotonin antagonists are potential antipsychotic drugs, in particular when simultaneously displaying dopamine antagonism in the first part of this test. Finally, α-adrenergic antagonistic activity of the test compounds is evaluated by challenging the same rats, subcutaneously pretreated with different doses of the test compound, with norepinephrine which is an α-adrenergic agonist.
The experimental data are summarized in Table 3 and expressed as ED50 values in mg/kg body weight, which are defined as the dose at which each of the tested compounds protects 50% of the tested animals from a relevant response evoked by the above-mentioned challenging substances. Column APO lists the results of the apomorphine challenge, indicating central dopamine antagonistic activity. Column TRY convulsions and TRY hyperaemia list the results of the tryptamine challenge, indicating central and peripheral serotonin antagonistic activity respectively. Column NOR lists the results of the norepinephrine challenge, indicating α-adrenergicantagonist activity. The favourable pharmacological properties of the compounds of formula (I) lie in their potent central dopamine (column APO) and serotonin (column TRY convulsions) antagonistic activity.

[3] = test system: α-adrenergic; test: Combined ATN test in rats: norepinephrine (NOR) challenge, α-adrenergic antagonist activity; conditions: Rattus norvegicus, sc, subcutaneous pretreatment, dose protecting 50% of animals

Compound | ED50 [1] | TRY convulsions ED50 [2] | TRY hyperaemia ED50 [2] | ED50 [3]
Cc1nc2ccccn2c(=O)c1CCN1CC[C@H]2Nc3ccccc3[C@@H]2C1 (relative stereo) [Compound 14] | 0.31 mg/kg | 1.25 mg/kg | ≤ 0.16 mg/kg | –
Cc1nc2scc(C)n2c(=O)c1CCN1CC[C@H]2Nc3ccc(F)cc3[C@@H]2C1 (relative stereo) [Compound 16] | 0.25 mg/kg | 0.45 mg/kg | 0.015 mg/kg | > 10 mg/kg
Cc1nc(NCc2ccccc2)n(C)c(=O)c1CCN1CC[C@H]2Nc3ccc(F)cc3[C@@H]2C1 (relative stereo) [Compound 31] | 1.25 mg/kg | ≥ 10 mg/kg | ≤ 0.16 mg/kg | > 10 mg/kg
Cc1nc2scc(C)n2c(=O)c1CCN1CC[C@H]2Nc3ccccc3[C@@H]2C1 (relative stereo) [Compound 12] | 1.25 mg/kg | 1.25 mg/kg | 0.02 mg/kg | > 10 mg/kg
Cc1nc2ccccn2c(=O)c1CCN1CC[C@@H]2[C@@H](C1)c1ccccc1N2C (relative stereo) [Compound 20] | 1.25 mg/kg | 1.25 mg/kg | ≤ 0.63 mg/kg | 5 mg/kg
Cc1nc2n(c(=O)c1CCN1CC[C@H]3Nc4ccccc4[C@@H]3C1)CCS2 (relative stereo) [Compound 13] | 2.5 mg/kg | 5 mg/kg | ≤ 0.04 mg/kg | –
Cc1nc2n(c(=O)c1CCN1CC[C@@H]3[C@@H](C1)c1cc(F)ccc1N3c1ccc(F)cc1)CCS2 (racemic) [Compound 23, (±)-trans-6-[2-[8-fluoro-5-(4-fluoro-phenyl)-1,3,4,4a,5,9b-hexahydro-2H-pyrido[4,3-b]indol-2-yl]ethyl]-2,3-dihydro-7-methyl-5H-thiazolo[3,2-a]pyrimidin-5-one] | 0.12 mg/kg | 0.08 mg/kg | ≤ 0.01 mg/kg | 0.03 mg/kg
Cc1nc2sccn2c(=O)c1CCN1CC[C@H]2[C@H](C1)c1cc(F)ccc1N2c1ccc(F)cc1 (relative stereo) [Compound 22] | 1.25 mg/kg | 1.25 mg/kg | 0.08 mg/kg | 0.5 mg/kg
Cc1nc2ccccn2c(=O)c1CCN1CC[C@H]2Nc3ccc(Cl)cc3[C@@H]2C1 (relative stereo) [Compound 28] | 0.08 mg/kg | 0.12 mg/kg | 0.005 mg/kg | > 10 mg/kg
Cc1nc2sccn2c(=O)c1CCN1CC[C@@H]2[C@@H](C1)c1ccccc1N2C (relative stereo) [Compound 19] | 8 mg/kg | 1.25 mg/kg | 0.31 mg/kg | 5 mg/kg
Cc1nc2sccn2c(=O)c1CCN1CC[C@H]2Nc3ccc(F)cc3[C@@H]2C1 (racemic) [Compound 15, (±)-trans-6-[2-(8-fluoro-1,3,4,4a,5,9b-hexahydro-2H-pyrido[4,3-b]indol-2-yl)ethyl]-7-methyl-5H-thiazolo[3,2-a]pyrimidin-5-one] | 0.31 mg/kg | 0.31 mg/kg | ≤ 0.0025 mg/kg | > 10 mg/kg
Cc1nc2n(c(=O)c1CCN1CC[C@H]3Nc4ccc(F)cc4[C@@H]3C1)CCCC2 (relative stereo) [Compound 18] | 0.31 mg/kg | 2 mg/kg | 0.02 mg/kg | –
Cc1nc2scc(C)n2c(=O)c1CCN1CC[C@H]2Nc3ccc(Cl)cc3[C@@H]2C1 (relative stereo) [Compound 27] | 0.31 mg/kg | 0.31 mg/kg | 0.005 mg/kg | –
COc1ccc2c(c1)[C@@H]1CN(CCc3c(C)nc4ccccn4c3=O)CC[C@H]1N2 (relative stereo) [Compound 30] | ≥ 10 mg/kg | 2 mg/kg | ≤ 0.16 mg/kg | –
Cc1nc2sccn2c(=O)c1CCN1CC[C@H]2Nc3ccc(Cl)cc3[C@@H]2C1 (relative stereo) [Compound 26] | 0.03 mg/kg | 0.02 mg/kg | 0.005 mg/kg | –
Cc1nc2n(c(=O)c1CCN1CC[C@@H]3[C@@H](C1)c1cc(F)ccc1N3c1ccc(F)cc1)CCCC2 (relative stereo) [Compound 25] | 0.31 mg/kg | 0.12 mg/kg | 0.02 mg/kg | –
Cc1nc2ccccn2c(=O)c1CCN1CC[C@H]2Nc3ccc(F)cc3[C@@H]2C1 (relative stereo) [Compound 17] | 0.08 mg/kg | 0.5 mg/kg | ≤ 0.04 mg/kg | –
COc1ccc2c(c1)[C@@H]1CN(CCc3c(C)nc4sccn4c3=O)CC[C@H]1N2 (relative stereo) [Compound 29] | 5 mg/kg | 5 mg/kg | 0.02 mg/kg | –
Cc1nc2scc(C)n2c(=O)c1CCN1CC[C@@H]2[C@@H](C1)c1cc(F)ccc1N2c1ccc(F)cc1 (relative stereo) [Compound 24] | 5 mg/kg | 1.25 mg/kg | ≤ 0.04 mg/kg | –
Cc1nc2sccn2c(=O)c1CCN1CC[C@H]2Nc3ccccc3[C@@H]2C1 (racemic) [Compound 11, (±)-trans-6-[2-(1,3,4,4a,5,9b-hexahydro-2H-pyrido[4,3-b]indol-2-yl)ethyl]-7-methyl-5H-thiazolo[3,2-a]pyrimidin-5-one] | 0.31 mg/kg | 0.31 mg/kg | ≤ 0.04 mg/kg | –
